Results as given in patent US4670584A, “Pharmaceutical composition having an excellent absorption property” (Ajinomoto Company Incorporated, priority 1986, dated 1987).
Residues, ends and D or L forms follow the SMILES beside them. *: point of attachment. Cbz = O=C(OCc1ccccc1)*

Tests used:
[1] = Oral insulin absorption in female ICR-CD-1 mice: percent decrease in blood glucose and degree of elevation of blood insulin; assay type: in vivo, mouse (Female ICR-CD-1 mice); conditions: vs control group
Description: The absorption promoter samples listed in Table 2 were dissolved or suspended in 0.5% CMC-0.05M tris-HCl buffers (pH: 7.8) and the solutions or suspensions were mixed with aqueous insulin solution. Female ICR-CD-1 mice 5 to 7 weeks old were orally administered predetermined amounts of the mixtures. A predetermined duration later, the percent decrease in blood glucose and the degree of elevation of blood insulin as compared with the control group were measured. The symbol "Z" in the structural formulas in the table represents a benzyloxycarbonyl group. The upper figures in the columns "effectiveness" represent the percent decrease in blood glucose and the lower parenthesized figures indicate the degree of elevation in blood insulin.

[2] = Usefulness as absorption promoter; conditions: statement in words, no data
[3] = Toxicity studies of phenylalanine derivatives, oral, in female CD-1(ICR) mice; conditions: mouse, in vivo, suspended in 0.5% CMC
Text: Toxicity Studies of Phenylalanine Derivatives with Oral IN Potentiating Activity in Female CD-1(ICR) Mice are as follows:
Phenylalanine derivatives were suspended in 0.5% CMC.

[4] = Degree of decrease in blood glucose after intraduodenal administration with insulin in rats; assay type: in vivo, rat (Male SD rats); conditions: male SD rats, 1.5 mg/10 body weight with insulin 1.25 U/10 g, mean
Description: Each (Administration: 1.5 mg/10 body weight) of the absorption promoters, phenylalanine derivatives as previously listed in the table was dissolved or suspended in 0.01M phosphate buffer (pH 7.5) and the solution or suspension was mixed with aqueous insulin (Administation: 1.25 U/10 g body weight) solution. Male SD rats, 6 weeks old, were intraduodenally administrated with predetermined amounts of the mixtures after being incised abdominally. The incised wounds were sutured quickly. A predetermined duration later, the percent decreases in blood glucose were determined. In the experiment, four rats a group were used, and the experiment was repeated 2 to 5 times. The mean values of the thus obtained data were described in the table.

[5] = sample 6.0 mg/10 g with insulin 2.5 U/10 g, 30 minutes
[6] = sample 6.0 mg/10 g with insulin 2.5 U/10 g, 60 minutes

Row | Compound | LD50 [3] | Decrease in Blood Glucose ([4]; 30 minutes) | Decrease in Blood Glucose ([4]; 60 minutes) | also measured
1 | O=C(NC(Cc1ccc(F)cc1)C(=O)N[C@@H](Cc1ccccc1)C(=O)O)OCc1ccccc1 (mixture of isomers) [Sample S-22, N-benzyloxycarbonyl-4-fluoro-DL-phenylalanyl-L-phenylalanine] |  |  |  | Decrease in Blood Glucose ([1]; sample 3.0 mg/10 g with insulin 2.5 U/10 g, 30 minutes): 63.1%
2 | O=C(COc1ccc([N+](=O)[O-])cc1)NC(Cc1ccc([N+](=O)[O-])cc1)C(=O)O (racemic) [Sample S-2, N-[(4-nitrophenoxy)acetyl]-4-nitro-DL-phenylalanine] |  |  |  | Decrease in Blood Glucose [1, 5]: 23.2%
3 | CC(=O)N[C@@H](Cc1ccccc1)C(=O)O [N-acetylphenylalanine] |  |  |  | usefulness as absorption promoter [2]: not useful as absorption promoters
4 | N[C@@H](Cc1ccccc1)C(=O)O [Phenylalanine] |  |  |  | usefulness as absorption promoter [2]: not useful as absorption promoters
5 | O=C(C=Cc1ccccc1)N[C@@H](Cc1ccccc1)C(=O)O [Sample S-3, N-cinnamoyl-L-phenylalanine] | > 2500 mg/kg |  |  | 
6 | O=C(COc1ccccc1)N[C@@H](Cc1ccccc1)C(=O)O [Sample S-5, N-phenoxyacetyl-L-phenylalanine] | > 4000 mg/kg |  |  | 
7 | O=C(N[C@@H](Cc1ccccc1)C(=O)N[C@@H](Cc1ccccc1)C(=O)O)OCc1ccccc1 [Sample S-7, N-benzyloxycarbonyl-L-phenylalanyl-L-phenylalanine] (Cbz-Phe-Phe-OH) | > 3000 mg/kg |  |  | 
8 | O=C(CCCc1ccccc1)N[C@@H](Cc1ccccc1)C(=O)O [Sample S-8, N-(4-phenylbutyroyl)-L-phenylalanine] |  |  |  | Decrease in Blood Glucose [1, 5]: 57.1%; Decrease in Blood Glucose [1, 6]: 35.6%
9 | O=C(N[C@@H](Cc1ccccc1)C(=O)N[C@@H](Cc1ccc(O)cc1)C(=O)O)OCc1ccccc1 [Sample S-10, N-benzyloxycarbonyl-L-phenylalanyl-L-tyrosine] (Cbz-Phe-Tyr-OH) | > 3000 mg/kg |  |  | 
10 | O=C(COc1cccc2ccccc12)N[C@@H](Cc1ccccc1)C(=O)O [Sample S-11, N-[(1-naphthoxy)acetyl]-L-phenylalanine] | > 4000 mg/kg |  |  | 
11 | O=C(COc1ccc2ccccc2c1)N[C@@H](Cc1ccccc1)C(=O)O [Sample S-12, N-[(2-naphthoxy)acetyl]-L-phenylalanine] | > 4000 mg/kg |  |  | 
12 | O=C(COc1ccc(Cl)cc1)N[C@@H](Cc1ccccc1)C(=O)O [Sample S-13, N-[(4-chlorophenoxy)acetyl]-L-phenylalanine] | > 3500 mg/kg |  |  | 
13 | O=C(N[C@@H](Cc1ccccc1)C(=O)O)OCc1ccccc1 [Sample S-15, N-benzyloxycarbonyl-L-phenylalanine] | > 2750 mg/kg |  |  | 
14 | O=C(N[C@@H](Cc1ccc(O)cc1)C(=O)O)OCc1ccccc1 [Sample S-16, N-benzyloxycarbonyl-L-tyrosne] |  |  |  | Decrease in Blood Glucose [1, 6]: 27.2%
15 | COc1ccc(COC(=O)N[C@@H](Cc2ccccc2)C(=O)O)cc1 [Sample S-17, N-(4-methoxybenzyloxycarbonyl)-L-phenylalanine] | 750 mg/kg |  |  | 
16 | O=C(N[C@H](Cc1ccccc1)C(=O)O)OCc1ccccc1 [Sample S-18, N-benzyloxycarbonyl-D-phenylalanine] | > 4000 mg/kg |  |  | 
17 | O=C(C=Cc1ccc2ccccc2c1)N[C@@H](Cc1ccccc1)C(=O)O [Sample S-37, N-(2-Naphthylacryloyl)-L-phenylalanine] |  | 55.3% | 40.2% | 
18 | O=C(C=Cc1ccc2ccccc2c1)N[C@H](Cc1ccccc1)C(=O)O [Sample S-38, N-(2-Naphthylacryloyl)-D-phenylalanine] |  | 27.0% | 24.7% | 
19 | CCc1ccc(C=CC(=O)N[C@@H](Cc2ccccc2)C(=O)O)cc1 [Sample S-39, N-(4-ethylcinnamoyl)-L-phenylalanine] |  | 56.0% | 32.5% | 
20 | CCc1ccc(C=CC(=O)N[C@H](Cc2ccccc2)C(=O)O)cc1 [Sample S-40, N-(4-ethylcinnamoyl)-D-phenylalanine] |  | 33.9% | 28.1% | 
21 | Cc1cccc(C=CC(=O)N[C@@H](Cc2ccccc2)C(=O)O)c1 [Sample S-41, N-(3-methylcinnamoyl)-L-phenylalanine] |  | 50.5% | 35.3% | 
22 | Cc1cccc(C=CC(=O)N[C@H](Cc2ccccc2)C(=O)O)c1 [Sample S-42, N-(3-methylcinnamoyl)-D-phenylalanine] |  | 48.8% | 40.7% | 
23 | O=C(C=Cc1cccc(Cl)c1)N[C@@H](Cc1ccccc1)C(=O)O [Sample S-43, N-(3-chlorocinnamoyl)-L-phenylalanine] |  | 50.9% | 46.9% | 
24 | O=C(C=Cc1cccc(Cl)c1)N[C@H](Cc1ccccc1)C(=O)O [Sample S-44, N-(3-chlorocinnamoyl)-D-phenylalanine] |  | 55.0% | 49.3% | 
25 | O=C(C=Cc1cccc2ccccc12)N[C@@H](Cc1ccccc1)C(=O)O [Sample S-45, N-(1-naphthylacryloyl)-L-phenylalanine] |  | 41.2% | 35.4% | 
26 | O=C(C=Cc1cccc2ccccc12)N[C@H](Cc1ccccc1)C(=O)O [Sample S-46, N-(1-naphthylacryloyl)-D-phenylalanine] |  | 41.6% | 28.8% | 
27 | Cc1ccc(C=CC(=O)N[C@H](Cc2ccccc2)C(=O)O)cc1 [Sample S-47, N-(4-methylcinnamoyl)-D-phenylalanine] |  | 52.3% | 41.0% | 
28 | O=C(N[C@H](Cc1ccccc1)C(=O)O)C(F)=Cc1ccccc1 [Sample S-48, N-(α-fluorocinnamoyl)-D-phenylalanine] |  | 73.7% | 72.9% | 
29 | O=C(N[C@@H](Cc1ccccc1)C(=O)O)C(Cl)=Cc1ccccc1 [Sample S-49, N-(α-Chlorocinnamoyl)-L-phenylalanine 1/2C2 H5 OH] |  | 63.2% | 49.1% | 
30 | O=C(N[C@H](Cc1ccccc1)C(=O)O)C(Cl)=Cc1ccccc1 [Sample S-50, N-(α-Chlorocinnamoyl)-D-phenylalanine 1/2C2 H5 OH] |  | 79.0% | 74.9% | 
